The values that follow come from PMC9995496, “A screen for MeCP2-TBL1 interaction inhibitors using a luminescence-based assay” (Scientific Reports, 2023).

For the test, the target named is T1, MeCP2-TBL1 interaction (MeCP2-SmBiT / TBL1-LgBiT) (Mus musculus, UniProt Q9QXE7).
T1 construct: expressed in transfected cells; crude lysate used as a cell-free assay
T1 sequence (Q9QXE7 166-527): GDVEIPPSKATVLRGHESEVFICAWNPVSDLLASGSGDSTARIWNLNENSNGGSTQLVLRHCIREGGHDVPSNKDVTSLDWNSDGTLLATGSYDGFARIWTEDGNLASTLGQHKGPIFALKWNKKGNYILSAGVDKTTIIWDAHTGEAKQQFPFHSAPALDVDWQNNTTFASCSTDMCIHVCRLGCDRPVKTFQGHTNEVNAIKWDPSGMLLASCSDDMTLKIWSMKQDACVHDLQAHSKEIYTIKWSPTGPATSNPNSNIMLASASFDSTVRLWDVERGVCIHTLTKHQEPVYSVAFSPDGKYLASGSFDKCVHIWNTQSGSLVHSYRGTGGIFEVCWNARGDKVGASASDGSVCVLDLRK
Put plainly: MeCP2-TBL1 NanoLuc luciferase complementation assay (cell-free, extracts of transfected HEK293 cells). It is filed as binding, human. The text has this:
To facilitate the discovery of inhibitors of the interaction between MeCP2 and TBL1/TBLR1, we set out to devise a simple and scalable biochemical assay for measuring the interaction between these two proteins. We initially explored the possibility of screening compound libraries using a previously established fluorescence polarization assay that depends on purified recombinant TBL1/TBLR1[26]. […] The resulting luminescence signal depends on the affinity between the two interacting proteins of interest (Fig. 1A). This method was originally developed to allow for the interrogation of protein–protein interactions in vivo. However, in order to facilitate large scale screening of chemical libraries, we adapted the assay for use as a cell-free system.
We fused the large N-terminal fragment of NanoLuc (LgBiT) to the C-terminus of the WD repeat domains of both TBL1 and TBLR1, and the small C-terminal fragment of NanoLuc (SmBiT) to the C-terminus of the C-terminal half of MeCP2 (Fig. 1B and C). This region of MeCP2 contains the NID (NCoR interaction domain)—the motif in MeCP2 that binds to TBL1/TBLR1.
The AgeI-NotI restriction fragment (encoding EGFP) was then replaced with a codon optimized SmBiT sequence to yield the MeCP2-SmBiT expression plasmid. The TBL1-LgBiT expression vector was derived from a TBL1-mCherry plasmid[25] by replacing the AgeI-NotI restriction fragment (encoding mCherry) with a codon optimized LgBiT sequence. SmBiT-PRKACA and LgBiT-PRKAR2A plasmids are commercially available (Promega, N203 and N204).
Cells were harvested after 24 h and cell pellets were stored at − 80 °C.
In the screens described here, the lysate obtained from a single 15 cm plate was used for 2.5 384-well assay plates. NanoLuc substrate (furimazine) (Promega, N1110) was diluted 1000-fold in passive lysis buffer (Promega, E1941) and added 1:1 to the lysate. Screening libraries were purchased from Asinex[40] and ApexBio (FDA-approved Drug Library, L1021). Compounds were dispensed using an Echo acoustic dispenser and tested at a final concentration of 20 µM in a total assay volume of 20 μl in 384-well plate format. DMSO was added to each well at a final concentration of 0.2% (v/v) and wells containing only DMSO were used as negative control. After 30 min incubation at room temperature, luminescence was measured on a Tecan M1000 multi-mode plate reader. Raw luminescence reads from each well on each plate were normalized to the median luminescence signal for that plate. In the ApexBio screen, the scaled and normalized PKA signal for each compound was subtracted from the MeCP2-TBL1 signal for the same compound. After plate normalization the robust SSMD (SSMD*) was calculated as described elsewhere. A threshold of SSMD* ≥ 3 was applied for discerning primary hits.
Assays were performed as described above except instead of a single concentration, a threefold serial dilution ranging from 60 to 0.03 μM was tested in triplicate for each of the compounds. Half-maximal inhibitory concentrations were calculated using global nonlinear regression by fitting the response data sets of all compounds simultaneously with a four-parameter logistic curve of log inhibitor concentration versus normalized luminescence using GraphPad Prism. During fitting, the maximum and minimum curve values were shared between the data sets.

[1] abbreviates: primary screen of the Asinex library, sheet "Sargen output Asinex library", one well per compound, Batch Ref. 1.
Setting [2] is: primary screen of the Asinex library, sheet "Sargen output Asinex library", one well per compound.
Where [3] appears, read: primary screen of Asinex library, single well per compound.

The structures appear in SMILES notation.

As to `COc1ccccc1Cc1cnc(C2CCCN(C(=O)c3ccc(Cc4ccccc4)nc3)C2)o1` (stereo not drawn) [BDE_33511644], under setting [1], the Inhibition percent is reported as 3.75%.

As for `COc1ccccc1Cc1cnc(C2CCCCN2C(=O)Cn2ncc3ccccc3c2=O)o1` (stereo not drawn) [BDE_33513118], the Inhibition percent under setting [1] is 1.49%.

Consider `O=C(c1cc(-c2ccccc2F)n[nH]1)N1CCCCC1c1ncc(Cc2ccccc2)o1` (stereo not drawn) [BDE_33513466], for which, under setting [1], the Inhibition percent is 6.68%.

As to `O=C(COc1ncnc2ccccc12)N1CCCCC1c1ncc(Cc2ccc(F)cc2)o1` (stereo not drawn) [BDE_33513539], the Inhibition percent under setting [1] is on record as -1.92%.

For the compound `O=C(COc1ncnc2ccccc12)N1CCCCC1c1ncc(Cc2cccc(Cl)c2)o1` (stereo not drawn) [BDE_33513542], under setting [1], the Inhibition percent was determined as 4.13%.

As for `COc1cccc(Cc2cnc(C3CCCCN3C(=O)COc3ncnc4ccccc34)o2)c1` (stereo not drawn) [BDE_33513545], the Inhibition percent under setting [2] amounted to 0.39%.

Consider `COc1cccc(-c2cc(C(=O)N3CCCCC3c3ncc(Cc4ccccc4OC)o3)[nH]n2)c1` (stereo not drawn) [BDE_33513613], for which the Inhibition percent under setting [1] came to 18.16%.

As to `O=C(NCC(=O)N1CCCCC1c1ncc(Cc2ccc(Cl)cc2)o1)c1cncc(O)c1` (stereo not drawn) [BDE_33513655], the Inhibition percent under setting [1] is -11.18%.

Regarding `COc1ccc(OC)c(-c2cc(C(=O)N3CCCCC3c3ncc(Cc4ccccc4)o3)[nH]n2)c1` (stereo not drawn) [BDE_33513704], under setting [1], the Inhibition percent came to 18.69%.

In the case of `COc1cccc(-c2cc(C(=O)N3CCCCC3c3ncc(Cc4ccccc4)o3)on2)c1` (stereo not drawn) [BDE_33514162], under setting [2], the Inhibition percent is given as 7.15%.

Take `O=C(c1cccc(-c2cncnc2)n1)N1CCCCC1c1ncc(Cc2cccc(F)c2)o1` (stereo not drawn) [BDE_33514471]: the Inhibition percent under setting [1] is listed as -1.40%.

On to `COc1ccccc1CC(=O)N1CCCCC1c1ncc(Cc2ccccc2OC)o1` (stereo not drawn) [BDE_33514655], for which, under setting [2], the Inhibition percent was 5.46%.

As for `COc1cccc(Cc2cnc(C3CCCCN3C(=O)Cc3ccccc3OC)o2)c1` (stereo not drawn) [BDE_33514656], the Inhibition percent under setting [2] was found to be 2.98%.

For the compound `COc1cccc(Cc2cnc(C3CCCCN3C(=O)c3cccnc3-c3cncs3)o2)c1` (stereo not drawn) [BDE_33514740], the Inhibition percent under setting [1] is recorded as 1.71%.

For `CNc1nc(C2CCCCN2C(=O)CCCN(C)c2ccccc2)nc2c1CCN(C(C)=O)C2` (stereo not drawn) [BDE_33628015], under setting [1], the Inhibition percent is -2.14%.

`COCc1nc2ccccc2n1CC(=O)N1CCCCC1C1CCN(C(=O)c2cnc(C)cn2)CC1` (stereo not drawn) [BDE_33628056]: under setting [2], the Inhibition percent was -2.31%.

Turning to `Cn1c(COCC(=O)N2CCCCC2c2cc(C(=O)NC3CCCC3)[nH]n2)nc2ccccc21` (stereo not drawn) [BDE_33628409], the Inhibition percent under setting [2] was -3.22%.

`Cc1ccc2ncnc(NCCC(=O)N3CCCCC3c3cc(C(=O)NC4CCCC4)[nH]n3)c2c1` (stereo not drawn) [BDE_33629308]: the Inhibition percent under setting [2] amounted to 0.99%.

On to `Cc1cc(Oc2ccc(C(N)=O)cc2)nc(C2CCCCN2C(=O)CCCN2CCCCCC2)n1` (stereo not drawn) [BDE_33629625], for which the Inhibition percent under setting [2] is recorded as -1.16%.

As to `O=C(CN1CCC(C2CCCCN2C(=O)C2CCN(Cc3ccccn3)CC2)CC1)N1CCCC1` (stereo not drawn) [BDE_33629903], under setting [1], the Inhibition percent is given as -3.25%.

Regarding `O=C(NC1CCCC1)c1cc(C2CCCCN2C(=O)C2CCN(Cc3ccncc3)CC2)n[nH]1` (stereo not drawn) [BDE_33629993], the Inhibition percent under setting [2] is -2.91%.

Turning to `O=C(c1ccc(CN2CCOCC2)cc1)N1CCCC1c1ccnc(-c2cccc(Cl)c2)n1` (stereo not drawn) [BDE_33630026], the Inhibition percent under setting [1] turned out to be 0.26%.

As for `Cc1ccc2nc(COCC(=O)N3CCCC3c3ccnc(-c4cccc(Cl)c4)n3)[nH]c2c1` (stereo not drawn) [BDE_33630067], the Inhibition percent under setting [2] is 1.05%.

Regarding `CC(C)(C)c1ccc2c(c1)N(CC(=O)N1CCCCC1CCNC(=O)c1ccccc1)C(=O)CO2` (stereo not drawn) [BDE_33630290], the Inhibition percent under setting [3] was -2.18.

Take `O=C(CCCC(=O)N1CCCCC1c1n[nH]cc1-c1ccc(C(F)(F)F)cc1)Nc1ccccn1` (stereo not drawn) [BDE_33631892]: under setting [1], the Inhibition percent is 4.13%.

For the compound `CN(C)c1ncc(-c2cccc(C(N)=O)c2)c(C2CCCCN2CC(=O)NCc2ccccn2)n1` (stereo not drawn) [BDE_33632669], the Inhibition percent under setting [3] was -2.55.

With `CCCN1CCN(C(=O)c2c[nH]cn2)CC(Cc2ccccc2-c2ccccc2OC)C1=O` (stereo not drawn) [BDE_33754981], the Inhibition percent under setting [1] was determined as 0.35%.

For the compound `O=C(OCc1ccccc1)N1C[C@@H](O)[C@H](N(Cc2ccccc2)Cc2ccc(F)c(F)c2)C1` [BDE_33958860], the Inhibition percent under setting [3] is 12.36.

`COc1ccccc1-c1ccc(CN2C[C@@H](c3ccccc3F)[C@@]3(CCCC(=O)N3)C2)cc1` [BDF_20367643]: under setting [1], the Inhibition percent is 18.11%.

Take `COc1ccc(S[C@@H]2CCO[C@@H](CCNC(=O)c3cc(OC)nc(OC)n3)C2)cc1` [BDF_22929100]: the Inhibition percent under setting [2] is on record as -1.50%.

Take `CC(=O)N1CCC(Cc2cc(-c3ccccc3)no2)(C(=O)N2CCC(C(C)(C)C)CC2)C1` (stereo not drawn) [BDF_23076577]: the Inhibition percent under setting [1] is given as 2.56%.

In the case of `CC(=O)N1CCC(Cc2cc(-c3ccccc3)no2)(C(=O)Nc2ccccc2OC(C)C)C1` (stereo not drawn) [BDF_23076638], the Inhibition percent under setting [1] turned out to be 1.76%.

With `Cn1nc(C(F)(F)F)cc1C(=O)NCC[C@@H]1C[C@@H](S(=O)(=O)c2ccccc2)CCO1` [BDF_23100510], under setting [3], the Inhibition percent amounted to 0.85.

Consider `CC(=O)N[C@@H]1CCO[C@H](c2ccc(NC(=O)C(c3ccccc3)c3ccccc3)cc2)C1` [BDF_23111075], for which, under setting [1], the Inhibition percent was determined as 0.91%.

As for `CCc1nnsc1C(=O)N(CC)[C@H]1CCO[C@@H](c2cccc(-c3cncnc3)c2)C1` [BDF_23117916], the Inhibition percent under setting [2] is recorded as -3.67%.

Take `COCCNC(=O)c1sc2ncccc2c1C1CCN(Cc2ccc3ncccc3c2)C1` (stereo not drawn) [BDF_24020930]: under setting [1], the Inhibition percent is -0.43%.

In the case of `CCN(CC)C(=O)CN1CCOC(c2c(C(=O)N3CCOCC3)sc3ncccc23)C1` (stereo not drawn) [BDF_24025276], the Inhibition percent under setting [1] is reported as -4.29%.

On to `CCN(Cc1cnn(-c2ccc(C)cc2)c1)[C@@H]1CCO[C@H](c2ccc(C(=O)N(C)C)cc2)C1` [BDF_24511039], for which the Inhibition percent under setting [2] is -0.31%.

`Cc1ccccc1OCCC(=O)N1CCC(c2nc(N(C)C)ncc2-c2cccc(F)c2)C1` (stereo not drawn) [BDF_24539058]: the Inhibition percent under setting [2] was 9.04%.

On to `Cc1cc(CCCC(=O)N2CCC(c3nc(N(C)C)ncc3-c3cncnc3)C2)ccc1F` (stereo not drawn) [BDF_24540183], for which the Inhibition percent under setting [1] is listed as 0.11%.

Regarding `NC(=O)C1(Cc2cc(C3CCCCC3)no2)CCN(C(=O)CN2CCCCCC2=O)C1` (stereo not drawn) [BDF_24693170], under setting [1], the Inhibition percent is on record as -2.18%.

As for `Cc1nc(C2CCN(C(=O)C3CCCCC3)C2)nc2c1CC(=O)N2CCCc1ccccc1` (stereo not drawn) [BDF_25113060], the Inhibition percent under setting [3] is recorded as -1.14.

For the compound `Cc1nnc(Nc2cccc(C3CN(C(=O)Cn4c(C)cc5ccccc54)CCO3)n2)s1` (stereo not drawn) [BDF_25244494], the Inhibition percent under setting [1] is given as -1.26%.

For the compound `Cc1cc(Nc2cccc(C3CN(C(=O)Cc4ccc5c(c4)CCCO5)CCO3)n2)nn1C` (stereo not drawn) [BDF_25246163], the Inhibition percent under setting [1] is on record as -0.41%.

For `Cc1ccccc1Cc1cccc(C2CN(C(=O)c3nccc4ccccc34)CCO2)n1` (stereo not drawn) [BDF_25249064], the Inhibition percent under setting [1] came out at 6.97%.

Turning to `O=C(CCc1[nH]nc2c1CCCC2)N1CCOC(c2cccc(Cc3ccc(F)cc3)n2)C1` (stereo not drawn) [BDF_25251125], the Inhibition percent under setting [1] is -1.98%.

For `Cc1cc(C)nc(NCCC(=O)N2CCOC(c3cccc(Cc4ccccc4C)n3)C2)n1` (stereo not drawn) [BDF_25252602], the Inhibition percent under setting [2] was -1.37%.

Turning to `NC(=O)c1cccc(-c2cccc(C3CN(C(=O)CCc4cccc(Cl)c4)CCO3)n2)c1` (stereo not drawn) [BDF_25272769], the Inhibition percent under setting [1] worked out at 7.95%.
